Results on 2 compounds are retold here after patent publication US11883391B2, “Compositions and methods for treating inflammatory bowel disease using CCR9 inhibitor and anti-IL-23 blocking antibodies” (ChemoCentryx, Inc., priority 2020, dated 2024).

Series [1] can be described thus: Trough plasma concentration of compound on day 3 (LC-MS) in the piroxicam-accelerated colitis study. Format: in vivo, mice. As to conditions: trough after the 3rd day of dosing, Compound 1 90 mg/kg SC BID, Compound 2 30 mg/kg SC QD, FIG. 1. An excerpt: The mice used were female 6 week old FVBMDR1a(+/+) and FVBMDR1a(−/−). Mice were normalized for body weight (BW) upon reaching 7 weeks of age, at which time their diet was switched to powdered chow containing piroxicam for a total of 10 days. BW and diarrhea score was monitored for 21 days (including the 10 days of piroxicam feeding). Blood was taken for trough compound levels on day 3 and at takedown. Rat IgG levels (anti-IL23 or isotype-matched control) were quantitated by ELISA on terminal blood draw. At takedown, colons were photographed and weight/length ratio calculated. Two colons from each group were formaldehyde fixed for future pathology assessment and disease scoring. Remaining colons from each group were dissociated for flow cytometry analysis of infiltrating immune cells.
Compound 1 was dosed at 90 mg/kg in 10% Cremophor-EL, SC, BID, and Compound 2 was dosed at 30 mg/kg in 1% HPMC, SC, QD. Vehicle 1 was 10% Cremophor-EL and was administered SC, BID. Vehicle 2 was 1% HPMC administered SC, QD. Anti-mouse IL-23 Clone G23-8 (Rat IgG1) was dosed at 300 μg/mouse, QD/QOD; Isotype-matched control Clone HRPN (Rat IgG1) was dosed at 300 μg/mouse, QD/QOD.
Blood was taken at trough from all Compound 1- and Compound 2-dosed mice, and plasma analyzed by Liquid Chromatography-Mass Spectroscopy to determine the concentration. Trough blood was taken after the 3rd day of dosing (FIG. 1).

For series [2], the system named is FVBMDR1a(−/−) mice. The experiment in a line: 21 Day Piroxicam-Accelerated MDR1a−/− Model Of Colitis: colon weight-to-length ratio. Format: in vivo. The settings on record: combined therapy with anti-IL-23; only the combined therapy significantly improved the W:L ratio. An excerpt:
Mice of the FVB strain lacking a functional MDR1 gene (also known as ABCB1, P-gp or CD243) develop a spontaneous infammatory bowel disease. This disease can be accelerated by adding the drug piroxicam to their food. FVB mice bearing a functional MDR1 gene are resistant to this disease.
Piroxicam is included in the mouse food for ten days, and the health of the mouse is monitored for a total of 21 days both during and after the piroxicam feeding. Symptoms monitored during this time include severity of diarrhea and changes in body weight.
The colon inflammation manifests itself as a thickening of the colon wall and shortening of the colon itself. The severity of the disease can thus be assessed via the ratio of the colon's weight to its length.
The mice used were female 6 week old FVBMDR1a(+/+) and FVBMDR1a(−/−). Mice were normalized for body weight (BW) upon reaching 7 weeks of age, at which time their diet was switched to powdered chow containing piroxicam for a total of 10 days. BW and diarrhea score was monitored for 21 days (including the 10 days of piroxicam feeding). Blood was taken for trough compound levels on day 3 and at takedown. Rat IgG levels (anti-IL23 or isotype-matched control) were quantitated by ELISA on terminal blood draw. At takedown, colons were photographed and weight/length ratio calculated. […]

Consider `CC(C)(C)c1ccc(S(=O)(=O)Nc2ccc(Cl)cc2C(=O)c2cc[n+]([O-])cc2)cc1` [Compound 1], for which the “Trough plasma concentration vs minimal concentration established for 98% receptor coverage” value in series [1] is on record as “met or exceeded the minimal concentration established for 98% receptor coverage”. The “synergy with anti-IL-23 to improve colon inflammation (W:L ratio)” value in series [2] was “synergized”.

Consider `Cc1cc(NS(=O)(=O)c2ccc(C(C)(C)C)c(F)c2)n(-c2cccc3nc(N)ccc23)n1` [Compound 2], for which the “Trough plasma concentration vs minimal concentration established for 98% receptor coverage” value in series [1] is “met or exceeded the minimal concentration established for 98% receptor coverage”. Moreover, the “synergy with anti-IL-23 to improve colon inflammation (W:L ratio)” value in series [2] is given as “synergized”.
